Earlier results in patent US20030225129A1, “Polymorphs of clopidogrel hydrogensulfate” (priority 2002, published 2003).

Key:
[1] = test system: platelet aggregation
[2] = in vivo
[3] = test system: platelet activity; conditions: after administration

COC(=O)[C@H](c1ccccc1Cl)N1CCc2sccc2C1 [clopidogrel, methyl (+)-(S)-∝-(o-chlorophenyl)-6,7-dihydrothieno[3,2-c]pyridine-5(4H)-acetate]
effectiveness relative to aspirin at stated dosages ([1]; 75 mg of base equivalent versus 325 mg of aspirin): more effective | effectiveness in blocking platelet aggregation relative to aspirin ([1]; versus aspirin, even at much lower dosage): more effective in blocking platelet aggregation than aspirin | gastrointestinal bleeding relative to aspirin [2]: much less gastrointestinal bleeding than aspirin | duration of antiplatelet activity [3]: up to ten days after administration
